Laboratory results taken from patent US5998366A, “Method for ameliorating glutamic acid decarboxylase associated autoimmune disorders” (The Regents of the University of California, priority 1997, dated 1999).

How the values were obtained:
[1] = test system: spleen cells of NOD mice; experiment: Proliferative recall response of spleen cells to β-cell antigens, by age; type: cell-based
Method: (§1) NOD (Taconic farms) and BALB/c mice (Jackson Laboratories) were kept under specific pathogen free conditions. The mice were sacrificed at the ages indicated and the spleen cells were tested directly ex vivo for their proliferative recall response to antigen. Single cell suspensions of spleen cells were plated at 1×10^6 cells per well in 96 well microtiter plates in 200 μl serum free HL-1 medium (Ventrex) that was supplemented with 2 mM glutamine with or without 10 μg/ml antigen (or 7 μM peptide) in triplicate cultures. During the last 16 h of the 72 h culture period, 1 μCi[^3 H]-thymidine was added per well. Incorporation of label was measured by liquid scintillation counting.
Both human GAD65 (Bu, et al., Proc. Natl. Acad. Sci., 89:2115-2119, 1992) and E. coli β-gal (control) were purified from recombinant bacteria on the basis of a hexahistidine tag which allows their rapid affinity purification by metal affinity chromatography (Hochuli, et al., Bio/Technology, 6:1321-1325, 1988). Bovine CPH was the generous gift of L. Fricker (Albert Einstein Col. Med.) and human insulin was purchased from Eli Lilly.

[2] = test system: female NOD mice; experiment: GAD immunization of 8 week old NOD mice, onset of IDDM; type: in vivo
Description: An IPTG inducible T7 expression vector was used to express both human GAD65 and E. coli b galactosidase (β-gal). In IPTG induced recombinant E. coli, GAD and β-gal constitute about 10-20% of the total bacterial protein. However, almost all of the GAD was in inclusion bodies, which could be isolated and extensively washed to obtain material that is about 80% GAD. We then did affinity purifications of GAD and β-gal on the basis of a hexa-histidine "tag" which was attached to GAD during the subcloning process. These extra histidine residues allow the rapid affinity purification (Novagen) of GAD by metal affinity chromatography (Hochuli, et al., Bio Technology, 6:1321-1325, 1988). The inclusion body material is solubilized in 6M guanidine hydrochloride (GHCL), 10 mm β-mercaptoethanol and 1% triton X-100. After binding to the column, the column was extensively washed with GHCL and 8M urea in phosphate buffers. Only the central peak GAD fraction was utilized for subsequent studies. Human GAD65 shares 96% amino acid sequence identity with murine GAD65, with most of the amino acid differences being conservative substitutions.
Breeder mice were purchased from Taconic Farms and housed under specific pathogen-free conditions. Only female NOD mice were used in this study. The average age of IDDM onset in unrelated females in the colony was 22 weeks. Insulitis is generally observed beginning at 4 weeks of age. T cell responses to GAD, HSP, CPH were found by 6 weeks in age. The incidence of IDDM in female mice is 70-90% by one year of age.
At 8 weeks of age, 25 ug GAD or control β-gal. was injected intraperftoneally (ip) in 100 ul of incomplete Freunds adjuvant (IFA). Because there may be a requirement for continual antigen presentation (Ramsdell, et al., Science, 257:1130-1133, 1992) mice were treated again every 6 weeks. Urine glucose levels were monitored twice weekly. After observing above normal glucose in urea, blood glucose levels were monitored twice weekly. Two consecutive blood glucose level readings of […] was considered as IDDM onset, after which the mice were sacrificed and spleen cells were tested as described above in Example 6 for evidence of spleen cell proliferation.

[3] = test system: female NOD mice; experiment: Long-term diabetes incidence, insulitis and βCA reactive T cells after GAD tolerization; type: in vivo
Method: (§2) 1. In these experiments female NOD mice were intravenously injected at 3 weeks of age with 50 μg GAD, μ-galactosidase, mycobacterial hsp65 (m-hsp) or 0.1 μg of the immunodominant hsp peptide (hsp-p), in PBS. At 12 weeks of age, mice were examined for insulitis and autoantigen reactive T-cells. At this age both indications are established in untreated NOD mice. Pancreatic tissue sections were stained by immunoperoxidase techniques for insulin and were counterstained with hematoxylin. Insulitis was scored in a blinded manner by examining 54 to 87 islets on 5 interrupted tissue sections from each pancreas. Proliferative splenic T-cell responses induced by various antigens were performed as described above in Example 4. Data in Table 8 are expressed as the average [^3 H]-thymidine label (cpm) incorporated in triplicate cultures.
Five GAD treated mice were sacrificed at 30 weeks of age.

[4] = test system: spleen cells of treated female NOD mice; experiment: Proliferative splenic T-cell responses to antigens after tolerance induction; type: in vivo
Method: as §1
as §2, with “Proliferative splenic T-cell responses induced by various antigens were performed as described above in Example 4.” left out, “cultures. […]” for “cultures.”

[5] = test system: spleen cells of treated female NOD mice; experiment: as above; type: in vivo; settings: Table 8A: i.v. at 3 weeks, tested at 12 weeks
[6] = test system: female NOD mice; experiment: Insulitis score after tolerance induction; type: in vivo; settings: examined at 12 weeks
Method: as §2
2. In a second set of experiments neonatal female NOD mice were injected intraperitoneally IFA with peptide 11, a mixture of peptides 34 and 35 plus IFA, or with IFA alone and at 12 weeks of age the mice were examined for insulitis and autoantigen reactive T-cells as in Example 6.1. Proliferative splenic T-cell responses induced by the various antigens were performed as in Example 4, and data in Table 8B are expressed as the average [^3 H]-thymidine label (cpm) incorporated in triplicate cultures.
3. In a third set of experiments female NOD mice were intravenously injected at three weeks of age with peptide 11 (control), a mixture of peptides 34 and 35 plus IFA, or with HEL peptides and at 12 weeks of age the mice were examined for insulitis and autoantigen reactive T-cells as in Example 6.1. Proliferative splenic T-cell responses induced by the various antigens were performed as in Example 4, and data in Table 8C are expressed as the average [^3 H]-thymidine label (cpm) incorporated in triplicate cultures.

[7] = five treated mice sacrificed at 30 weeks

Substance: GAD: human GAD65 purified from recombinant bacteria on the basis of a hexahistidine tag
- T cell proliferation in non-diseased spleen cells ([1]; <4 or >16 week old NOD or control BALB/c or (NOD/BALB/c)F1 spleen cells): did not induce T cell proliferation
- age at which the proliferative T-cell response to the antigen appeared ([1]; female NOD mice, 10 μg/ml antigen or 7 μM peptide, 72 h culture (FIG. 8)): 4 weeks
- age until which 8 of the immunized mice showed no signs of hyperglycemia ([2]; 25 ug ip in IFA at 8 weeks, again every 6 weeks): 36 weeks
- treated mice remaining disease free at 52 weeks of age ([2]; 25 ug ip in IFA at 8 weeks, again every 6 weeks, 10 mice per group): Four
- significance of the delay or prevention of diabetes ([2]; versus β-gal immunized mice): < 0.02
- insulitis at 30 weeks of age [3, 7]: four mice were completely free of insulitis
- βCA reactive T cells at 30 weeks of age [3, 7]: free of detectable βCA reactive T cells
- glucose levels of treated mice ([3]; n=17, presently 37 weeks old): normal glucose levels
- share of treated mice with no T-cell reactivity to GAD (complete tolerization) or to other βCAs ([4]; i.v. at 3 weeks, tested at 12 weeks): Seventy five percent
- weak residual GAD reactivity of the mice not completely tolerized ([4]; twenty five percent of the GAD-treated mice): about 3 SI
- Spleen Cell Proliferation (SI ± SEM) CPH ([5]; recall antigen CPH): 1.1 ± 0.02 SI
- Spleen Cell Proliferation (SI ± SEM) GAD ([5]; recall antigen GAD): 1.6 ± 0.3 SI
- Spleen Cell Proliferation (SI ± SEM) GAD Peptides #17 ([5]; recall antigen GAD peptide #17): 1.0 ± 0.05 SI
- Spleen Cell Proliferation (SI ± SEM) GAD Peptides #34 ([5]; recall antigen GAD peptide #34): 1.2 ± 0.1 SI
- Spleen Cell Proliferation (SI ± SEM) GAD Peptides #35 ([5]; recall antigen GAD peptide #35): 1.0 ± 0.1 SI
- Spleen Cell Proliferation (SI ± SEM) hsp Peptide ([5]; recall antigen hsp peptide): 1.2 ± 0.1 SI
- Spleen Cell Proliferation (SI ± SEM) β-Gal ([5]; recall antigen β-Gal): 1.1 ± 0.03 SI
- Insulitis Score ([6]; Table 8A: i.v. injection at 3 weeks of age in PBS, scale 0-4, mean ± SE): 0.1 ± 0.1
- insulitis score of the completely tolerized mice ([6]; i.v. at 3 weeks): 0.0
